Measured values as given in US20070128217A1 (priority 2003, published 2007).

Assays:
[1] = test system: antibodies in sera from SARS patients (sera 1a, 1b, 2, 6, 37, 62, London, SARS-yellow, SARS-green); assay type: binding, human; design: Binding of serum 6 to linear peptides of protein X1 of SARS-CoV Urbani / Binding of serum 37 to linear peptides of protein X1 of SARS-CoV Urbani / Binding of serum 6 to looped/cyclic peptide (PEPSCAN-ELISA) / Binding of serum 37 to looped/cyclic peptide (PEPSCAN-ELISA) / Binding of serum 37 to looped/cyclic peptides of protein X1 of SARS-CoV Urbani / Binding of serum 6 to linear peptides of protein X2 / Binding of serum 37 to linear peptides of protein X2 / Binding of serum 37 to looped/cyclic peptides of protein X2 of SARS-CoV Urbani / Binding of serum 6 to linear peptides of protein M of SARS-CoV Urbani / Binding of serum 37 to linear peptides of protein M of SARS-CoV Urbani / Binding of serum 6 to looped/cyclic peptides of protein M of SARS-CoV Urbani / Binding of serum 37 to looped/cyclic peptides of protein M of SARS-CoV Urbani / Binding of serum 6 to linear peptides of protein X3 of SARS-CoV Urbani / Binding of serum 37 to linear peptides of protein X3 of SARS-CoV Urbani / Binding of serum 37 to looped/cyclic peptides of protein X3 of SARS-CoV Urbani / Binding of serum 6 to linear peptides of protein X4 of SARS-CoV Urbani / Binding of serum 37 to linear peptides of protein X4 of SARS-CoV Urbani / Binding of serum 37 to looped/cyclic peptides of protein X4 of SARS-CoV Urbani / Binding of serum 6 to linear peptides of protein X5 of SARS-CoV Urbani / Binding of serum 37 to linear peptides of protein X5 of SARS-CoV Urbani / Binding of serum 37 to looped/cyclic peptides of protein X5 of SARS-CoV Urbani / Binding of serum 6 to linear peptides of protein N of SARS-CoV Urbani / Binding of serum 37 to linear peptides of protein N of SARS-CoV Urbani / Binding of serum 6 to linear peptide (PEPSCAN-ELISA) / Binding of serum 1a to looped/cyclic peptides of protein N of SARS-CoV Urbani / Binding of serum 1b to looped/cyclic peptides of protein N of SARS-CoV Urbani / Binding of serum 2 to looped/cyclic peptides of protein N of SARS-CoV Urbani / Binding of serum 6 to looped/cyclic peptides of protein N of SARS-CoV Urbani / Binding of serum 37 to looped/cyclic peptides of protein N of SARS-CoV Urbani / Binding of serum 62 to looped/cyclic peptides of protein N of SARS-CoV Urbani / Binding of serum London to looped/cyclic peptides of protein N of SARS-CoV Urbani / Binding of serum SARS-green to looped/cyclic peptides of protein N of SARS-CoV Urbani: unit not given here
[2] = test system: control sera (pooled serum of ten healthy LUMC hospital workers; commercial negative donor pooled serum from the Dutch bloodbank); assay type: binding, human; design: Binding of Control serum LUMC to linear peptides / Binding of Control serum Blood-bank to linear peptides / Binding of Control serum LUMC to looped peptides / Binding of Control Serum Blood-Bank to Looped peptides / Binding of Control serum LUMC to linear peptides of the protein M of SARS-CoV Urbani / Binding of Control serum Blood-bank to linear peptides of the protein M of SARS-CoV Urbani / Binding of Control serum LUMC to looped peptides of the protein M of SARS-CoV Urbani / Binding of Control Serum Blood-Bank to Looped peptides of the protein M of SARS-CoV Urbani: unit not given here
[3] = test system: rabbit serum obtained by immunizing a rabbit with the SARS-CoV strain Frankfurt 1; assay type: binding; design: Binding of a rabbit serum to linear peptides / Binding of a rabbit serum to looped peptides / Rabbit serum linear peptides / Rabbit serum looped peptides / Binding of a rabbit serum to linear peptides of protein N of SARS-CoV Urbani (Rabbit serum linear peptides) / Binding of a rabbit serum to looped/cyclic peptides of protein N of SARS-CoV Urbani (Rabbit serum looped peptides): unit not given here
[4] = test system: recombinant human anti-SARS-CoV antibody 03-018; assay type: binding; design: Binding of antibody 03-018 to linear peptides of the N protein of SARS-CoV Urbani / Binding of antibody 03-018 to looped/cyclic peptides of the N protein of SARS-CoV Urbani: unit not given here

Sequence	Binding of serum 1a to linear peptide (PEPSCAN-ELISA) [1]	Binding of serum 1a to looped/cyclic peptides of protein N of SARS-CoV Urbani [1]	Binding of serum 1b to linear peptide (PEPSCAN-ELISA) [1]	Binding of serum 1b to looped/cyclic peptides of protein N of SARS-CoV Urbani [1]	Binding of serum 2 to linear peptide (PEPSCAN-ELISA) [1]	Binding of serum 2 to looped/cyclic peptides of protein N of SARS-CoV Urbani [1]	Binding of serum 6 to linear peptide (PEPSCAN-ELISA) [1]	Binding of serum 6 to looped/cyclic peptides of protein N of SARS-CoV Urbani [1]	Binding of serum 37 to linear peptide (PEPSCAN-ELISA) [1]	Binding of serum 37 to looped/cyclic peptides of protein N of SARS-CoV Urbani [1]	Binding of serum 62 to linear peptide (PEPSCAN-ELISA) [1]	Binding of serum 62 to looped/cyclic peptides of protein N of SARS-CoV Urbani [1]	Binding of serum London to linear peptide (PEPSCAN-ELISA) [1]	Binding of serum London to looped/cyclic peptides of protein N of SARS-CoV Urbani [1]	Binding of serum SARS-green to looped/cyclic peptides of protein N of SARS-CoV Urbani [1]	Binding of serum SARS-yellow to looped/cyclic peptides of protein N of SARS-CoV Urbani [1]	Binding of a rabbit serum to linear peptides of protein N of SARS-CoV Urbani (Rabbit serum linear peptides) [3]	Binding of a rabbit serum to looped/cyclic peptides of protein N of SARS-CoV Urbani (Rabbit serum looped peptides) [3]	Binding of antibody 03-018 to linear peptides of the N protein of SARS-CoV Urbani [4]	Binding of antibody 03-018 to looped/cyclic peptides of the N protein of SARS-CoV Urbani [4]	also measured
SRGNSRNSTPGSSRG	0.7	0.6	0.4	0.4	0.2	0.2	0.2	0.2	0.7	0.4	0.7	0.3	0.5	0.3	0.1	0.2	0.2	0.2	0.1	0.2	Binding of serum SARS-green to linear peptide (PEPSCAN-ELISA) [1]: 0.4; Binding of serum SARS-yellow to linear peptide (PEPSCAN-ELISA) [1]: 0.7; Binding of Control Serum Blood-Bank to Looped peptides [2]: 0.4; Binding of Control serum Blood-bank to linear peptides [2]: 0.9; Binding of Control serum LUMC to linear peptides [2]: 0.8; Binding of Control serum LUMC to looped peptides [2]: 0.4
SRNSTPGSSRGNSPA	0.7	0.6	0.5	0.6	0.4	0.4	0.2	0.4	0.8	0.5	0.9	0.5	0.6	0.4	0.3	0.4	0.1	0.6	0.1	0.2	Binding of serum SARS-green to linear peptide (PEPSCAN-ELISA) [1]: 0.4; Binding of serum SARS-yellow to linear peptide (PEPSCAN-ELISA) [1]: 0.7; Binding of Control Serum Blood-Bank to Looped peptides [2]: 0.7; Binding of Control serum Blood-bank to linear peptides [2]: 0.9; Binding of Control serum LUMC to linear peptides [2]: 0.9; Binding of Control serum LUMC to looped peptides [2]: 0.7
SRQLQNSMSGASADS	–	0.2	–	0.1	–	0.3	–	0.1	–	0.4	–	0.3	–	0.2	0.3	0.2	0.5	0.6	0.1	0.2	Binding of serum 1a to linear peptides of protein N of SARS-CoV Urbani [1]: 0.2; Binding of serum 1b to linear peptides of protein N of SARS-CoV Urbani [1]: 0.1; Binding of serum 2 to linear peptides of protein N of SARS-CoV Urbani [1]: 0.2; Binding of serum 6 to linear peptides of protein N of SARS-CoV Urbani [1]: 0.2; Binding of serum 37 to linear peptides of protein N of SARS-CoV Urbani [1]: 0.8; Binding of serum 62 to linear peptides of protein N of SARS-CoV Urbani [1]: 0.6; Binding of serum London to linear peptides of protein N of SARS-CoV Urbani [1]: 0.6; Binding of serum SARS-green to linear peptides of protein N of SARS-CoV Urbani [1]: 0.5; Binding of serum SARS-yellow to linear peptides of protein N of SARS-CoV Urbani [1]: 0.5; Control Serum Blood-Bank Looped peptides [2]: 0.5; Control serum Blood-bank linear peptides [2]: 0.8; Control serum LUMC linear peptides [2]: 0.7; Control serum LUMC looped peptides [2]: 0.3
SRSSSRSRGNSRNST	0.2	0.3	0.1	0.2	0.2	0.3	0.2	0.3	0.4	0.5	0.6	0.4	0.4	0.4	0.2	0.4	0.1	0.3	0.1	0.2	Binding of serum SARS-green to linear peptide (PEPSCAN-ELISA) [1]: 0.2; Binding of serum SARS-yellow to linear peptide (PEPSCAN-ELISA) [1]: 0.7; Binding of Control Serum Blood-Bank to Looped peptides [2]: 0.6; Binding of Control serum Blood-bank to linear peptides [2]: 0.7; Binding of Control serum LUMC to linear peptides [2]: 0.7; Binding of Control serum LUMC to looped peptides [2]: 0.6
